Source: ChEMBL document CHEMBL4308908, “Lamellarin-inspired potent topoisomerase I inhibitors with the unprecedented benzo[g][1]benzopyrano[4,3-b]indol-6(13H)-one scaffold” (Bioorg Med Chem, 2019)
Activity calls are given as the source filed them. The calls are words filed in the database; no cut-off is given here.

Legend:
MKN-74 = assay: Antiproliferative activity against human MKN74 cells after 48 hrs by SRB assay; format: functional; conditions: MKN-74, 48 h
RXF 631 = assay: Antiproliferative activity against human RXF631L cells after 48 hrs by SRB assay; format: functional; conditions: RXF 631, 48 h
OVCAR-3 = assay: Antiproliferative activity against human OVCAR3 cells after 48 hrs by SRB assay; format: functional; conditions: OVCAR-3, 48 h
[1] = molecular target: T1, DNA topoisomerase I (Bos taurus) (UniProt F1MN93); assay: Inhibition of calf thymus DNA topoisomerase 1 assessed as reduction in enzyme-mediated relaxation of supercoiled pBR322 plasmid DNA at 10 uM after 30 mins by agarose gel electrophoresis
T1 sequence (whole entry): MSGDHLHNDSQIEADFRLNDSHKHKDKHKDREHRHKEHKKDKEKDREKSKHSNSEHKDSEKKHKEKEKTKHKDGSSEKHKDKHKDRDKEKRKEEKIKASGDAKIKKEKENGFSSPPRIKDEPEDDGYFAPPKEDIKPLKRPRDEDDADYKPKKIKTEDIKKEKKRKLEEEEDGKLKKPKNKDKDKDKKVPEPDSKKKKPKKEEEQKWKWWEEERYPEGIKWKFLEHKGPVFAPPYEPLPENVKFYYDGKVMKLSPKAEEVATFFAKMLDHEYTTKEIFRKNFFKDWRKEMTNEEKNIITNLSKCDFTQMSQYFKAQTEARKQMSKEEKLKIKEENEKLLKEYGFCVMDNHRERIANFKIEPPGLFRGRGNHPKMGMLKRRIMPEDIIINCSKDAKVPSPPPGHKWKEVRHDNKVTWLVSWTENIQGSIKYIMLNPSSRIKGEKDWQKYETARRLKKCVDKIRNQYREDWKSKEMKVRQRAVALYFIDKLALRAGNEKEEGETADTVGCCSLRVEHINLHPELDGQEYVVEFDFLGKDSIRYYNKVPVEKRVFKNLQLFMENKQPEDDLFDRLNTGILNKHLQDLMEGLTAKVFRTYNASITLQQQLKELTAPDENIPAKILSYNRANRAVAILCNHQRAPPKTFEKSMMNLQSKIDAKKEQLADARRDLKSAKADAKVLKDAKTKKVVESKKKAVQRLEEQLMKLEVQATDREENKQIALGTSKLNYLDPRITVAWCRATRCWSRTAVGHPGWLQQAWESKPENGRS

OVCAR-5 = assay: Antiproliferative activity against human OVCAR5 cells after 48 hrs by SRB assay; format: functional; conditions: OVCAR-5, 48 h
MCF7 = assay: Antiproliferative activity against human MCF7 cells after 48 hrs by SRB assay; format: functional; conditions: MCF7, 48 h
HCT-15 = assay: Antiproliferative activity against human HCT15 cells after 48 hrs by SRB assay; format: functional; conditions: HCT-15, 48 h
SNB-75 = assay: Antiproliferative activity against human SNB75 cells after 48 hrs by SRB assay; format: functional; conditions: SNB-75, 48 h
HT-29 = assay: Antiproliferative activity against human HT-29 cells after 48 hrs by SRB assay; format: functional; conditions: HT-29, 48 h
NCI-H226 = assay: Antiproliferative activity against human NCI-H226 cells after 48 hrs by SRB assay; format: functional; conditions: NCI-H226, 48 h
SF-268 = assay: Antiproliferative activity against human SF268 cells after 48 hrs by SRB assay; format: functional; conditions: SF-268, 48 h
HCC 2998 = assay: Antiproliferative activity against human HCC2998 cells after 48 hrs by SRB assay; format: functional; conditions: HCC 2998, 48 h
MKN-28 = assay: Antiproliferative activity against human MKN28 cells after 48 hrs by SRB assay; format: functional; conditions: MKN-28, 48 h
SK-OV-3 = assay: Antiproliferative activity against human SKOV3 cells after 48 hrs by SRB assay; format: functional; conditions: SK-OV-3, 48 h
MDA-MB-231 = assay: Antiproliferative activity against human MDA-MB-231 cells after 48 hrs by SRB assay; format: functional; conditions: MDA-MB-231, 48 h
KM12 = assay: Antiproliferative activity against human KM12 cells after 48 hrs by SRB assay; format: functional; conditions: KM12, 48 h
ACHN = assay: Antiproliferative activity against human ACHN cells after 48 hrs by SRB assay; format: functional
PC-3 = assay: Antiproliferative activity against human PC3 cells after 48 hrs by SRB assay; format: functional; conditions: PC-3, 48 h
[2] = Antiproliferative activity against human HBC5 cells after 48 hrs by SRB assay; format: functional; conditions: HBC5, 48 h
DMS-273 = assay: Antiproliferative activity against human DMS273 cells after 48 hrs by SRB assay; format: functional; conditions: DMS-273, 48 h
SF-295 = assay: Antiproliferative activity against human SF295 cells after 48 hrs by SRB assay; format: functional; conditions: SF-295, 48 h
NCI-H460 = assay: Antiproliferative activity against human NCI-H460 cells after 48 hrs by SRB assay; format: functional; conditions: NCI-H460, 48 h
A549 = assay: Antiproliferative activity against human A549 cells after 48 hrs by SRB assay; format: functional; conditions: A549, 48 h
MKN-45 = assay: Antiproliferative activity against human MKN45 cells after 48 hrs by SRB assay; format: functional; conditions: MKN-45, 48 h
[3] = molecular target: T1, DNA topoisomerase I (Bos taurus); assay: Inhibition of calf thymus DNA topoisomerase 1 assessed as reduction in enzyme-mediated relaxation of supercoiled pBR322 plasmid DNA at 10 uM after 30 mins by ethidium bromide staining-based agarose gel electrophoresis
DU-145 = assay: Antiproliferative activity against human DU145 cells after 48 hrs by SRB assay; format: functional; conditions: DU-145, 48 h
St-4 = assay: Antiproliferative activity against human St-4 cells after 48 hrs by SRB assay; format: functional; conditions: St-4, 48 h
NCI-H522 = assay: Antiproliferative activity against human NCI-H522 cells after 48 hrs by SRB assay; format: functional; conditions: NCI-H522, 48 h
MKN-1 = assay: Antiproliferative activity against human MKN1 cells after 48 hrs by SRB assay; format: functional; conditions: MKN-1, 48 h
U-251 = assay: Antiproliferative activity against human U251 cells after 48 hrs by SRB assay; format: functional; conditions: U-251, 48 h
MKN-7 = assay: Antiproliferative activity against human MKN7 cells after 48 hrs by SRB assay; format: functional; conditions: MKN-7, 48 h
[4] = Antiproliferative activity against human HBC4 cells after 48 hrs by SRB assay; format: functional; conditions: HBC4, 48 h
SNB-78 = assay: Antiproliferative activity against human SNB78 cells after 48 hrs by SRB assay; format: functional; conditions: SNB-78, 48 h
[5] = Toxicity in mouse Colon 26 cells implanted BALB/c mouse assessed as induction of body weight loss at 50 mg/kg, iv administered every 2 days for 7 times starting 1 day after tumor implantation and measured daily until day 20; format: organism-based; conditions: in vivo

With `COc1cc2c(ccc3c4c(=O)oc5cc(OC(=O)[C@@H](N)C(C)C)c(OC)cc5c4n(C)c23)cc1OC(=O)[C@@H](N)C(C)C.O=C(O)C(F)(F)F.O=C(O)C(F)(F)F` the GI50 (MKN-74) was 75.9 nM, the GI50 (RXF 631) was 1000 nM and the GI50 (OVCAR-3) was 56.2 nM. For the same molecule, the inhibition [1] was “Active”, the GI50 (OVCAR-5) was 45.7 nM and the GI50 (MCF7; read-out: GI50) was 6.1 nM. It also gave a GI50 (MCF7; read-out: pGI50 (converted)) of 6.17 nM, a GI50 (HCT-15) of 58.9 nM and a GI50 (SNB-75) of 8.32 nM. The GI50 (HT-29) was 955 nM, the GI50 (NCI-H226) was 89.1 nM and the GI50 (SF-268) was 8.32 nM. It also gave a GI50 (HCC 2998) of 91.2 nM, a GI50 (MKN-28; read-out: GI50) of 41 nM and a GI50 (MKN-28; read-out: pGI50 (converted)) of 40.7 nM. The GI50 (SK-OV-3; read-out: GI50) was 20 nM, the GI50 (SK-OV-3; read-out: pGI50 (converted)) was 19.9 nM and the GI50 (MDA-MB-231) was 148 nM. For the same molecule, the GI50 (KM12) was 57.5 nM, the GI50 (ACHN; read-out: GI50) was 2.9 nM and the GI50 (ACHN; read-out: pGI50 (converted)) was 2.88 nM. For the same molecule, the GI50 (PC-3) was 70.8 nM, the GI50 [2] was 138 nM and the GI50 (DMS-273) was 4.27 nM. It also gave a GI50 (SF-295) of 12.9 nM, a GI50 (NCI-H460) of 4.37 nM and a GI50 (A549) of 52.5 nM. For the same molecule, the GI50 (MKN-45) was 105 nM, the inhibition [3] was “Active” and the GI50 (DU-145; read-out: GI50) was 3.2 nM. For the same molecule, the GI50 (DU-145; read-out: pGI50 (converted)) was 3.16 nM, the GI50 (St-4) was 1000 nM and the GI50 (NCI-H522; read-out: GI50) was 3.4 nM. The GI50 (NCI-H522; read-out: pGI50 (converted)) was 3.47 nM, the GI50 (MKN-1) was 44.7 nM and the GI50 (U-251; read-out: GI50) was 3.4 nM. For the same molecule, the GI50 (U-251; read-out: pGI50 (converted)) was 3.39 nM, the GI50 (MKN-7) was 52.5 nM and the GI50 [4] was 10 nM. The GI50 (SNB-78) was 282 nM and the Activity [5] was “Non-Toxic”.
